Measured values from US20230364079A1, “COMPOUND AS BRAIN-PERMEABLE BTK OR HER2 INHIBITOR, PREPARATION METHOD THEREFOR, AND USE THEREOF” (CHENGDU HYPERWAY PHARMACEUTICALS CO., LTD., priority 2020, published 2023).

Tests used:
[1] = molecular target: BTK wild-type kinase (Homo sapiens (Human), UniProt Q06187); test: BTK kinase activity inhibition test in vitro (Caliper EZ Reader); assay type: biochemical
Experimental: (§1) In the tests on the activity of inhibiting BTK and HER2 kinase in vitro in the examples of the present disclosure, powder of the compound was dissolved in 100% DMSO to prepare a 10 mM stock solution and stored at-20° C. in the dark. […] In addition, the compounds were subjected to experiments such as liver microsome metabolic stability, rat PK, rat brain penetration rate, and drug efficacy model in the examples of the present disclosure.
(§2) Compound powders were dissolved in 100% DMSO to make 10 mM stock solutions, which were stored at -20° C. in the dark.
(§3) 2: Kinase Reaction Process
(§4) (1) Preparation of 1 × Kinase buffer.
(§5) (5) After centrifugation at 1000 rpm for 30 seconds, the reaction plate was shaken to mix well and incubated at room temperature for 10 min.
(§6) (6) A 5/3-fold final concentration of a mixed solution of ATP and Kinase substrate 2 was prepared with 1 × Kinase buffer.
(§7) (7) 15 µL of the mixed solution of ATP and substrate with 5/3-fold final concentration was added to start the reaction.
(§8) (8) The 384-well plate was centrifuged at 1000 rpm for 30 seconds, shaken to mix well, and incubated at room temperature for 10 min.
(§9) (9) 30 µL of a stop solution was added to stop the kinase reaction, and after centrifugation at 1000 rpm for 30 seconds, the plate was shaken to mix well;
(§10) (10) The conversion rate was read with Caliper EZ Reader.
(§11) where Conversion%_sample indicates the conversion rate reading of the sample; Conversion%_min is the average reading of the negative control wells, representing the conversion rate reading of the wells without enzyme activity; Conversion%_max is the average reading of the ratio of the positive control wells, representing the conversion rate reading of the wells without compound inhibition.
(§12) Dose-Response Curve Fitting
(§13) With the log value of the concentration as the X-axis, and the percentage inhibition rate as the Y-axis, the dose-effect curve was fitted using the log(inhibitor) vs. response-Variable slope of the analysis software GraphPad Prism 5, so as to determine the IC50 value of each compound on the enzyme activity.
(§14) The calculation formula was: […]

[2] = molecular target: BTK mutation-type C481S kinase (Homo sapiens (Human), UniProt Q06187, C481S); test: BTK-C481S kinase activity inhibition test in vitro (Caliper EZ Reader); assay type: biochemical
Sequence of BTK mutation-type C481S kinase (Q06187 whole entry C481S): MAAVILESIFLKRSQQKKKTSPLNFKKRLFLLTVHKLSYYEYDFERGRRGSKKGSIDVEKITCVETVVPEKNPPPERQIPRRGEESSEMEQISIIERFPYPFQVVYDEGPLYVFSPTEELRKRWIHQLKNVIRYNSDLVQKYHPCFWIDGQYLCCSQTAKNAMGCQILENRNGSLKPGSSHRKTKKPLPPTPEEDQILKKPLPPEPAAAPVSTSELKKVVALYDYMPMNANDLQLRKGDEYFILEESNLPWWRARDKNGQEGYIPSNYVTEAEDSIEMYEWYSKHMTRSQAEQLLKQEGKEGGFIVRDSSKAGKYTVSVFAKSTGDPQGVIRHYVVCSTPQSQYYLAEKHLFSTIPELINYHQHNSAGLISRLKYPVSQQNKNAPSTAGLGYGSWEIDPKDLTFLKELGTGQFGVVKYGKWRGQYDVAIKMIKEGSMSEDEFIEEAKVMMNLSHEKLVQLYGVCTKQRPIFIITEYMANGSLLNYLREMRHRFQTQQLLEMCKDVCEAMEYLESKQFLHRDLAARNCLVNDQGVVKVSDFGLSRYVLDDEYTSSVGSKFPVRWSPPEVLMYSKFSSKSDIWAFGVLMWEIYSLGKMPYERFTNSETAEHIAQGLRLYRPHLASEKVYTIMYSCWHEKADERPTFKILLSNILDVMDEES
Experimental: as §1, §2, §3, §4, §5, §6, §7, §8, §9, §10, §11, §12, §13, §14

[3] = Pharmacokinetic test, oral, SD rats; assay type: in vivo; conditions: oral 10 mg/kg, plasma; for AUC(0-inf) / Cmax / half-life: rat; for Cmax: read-out: Cmax; for half-life: read-out: T½ (converted)
Experimental: Each test compound was administered orally (10 mg/kg, 3 rats in each group) to SD rats for pharmacokinetic study. […] Animals were fasted overnight before oral administration, and fed again after 4 h of administration. […] At each collection time point, 3 whole blood samples were collected at a the collection volume of about 0.2-0.3 mL. […] The collected plasma was stored at -20° C. before analysis. 20 µL of plasma sample was added into a 1.6 mL 96-well deep-well plate, added with 200 µL of working internal standard solution (the same volume of vehicle was added to the blank instead of internal standard), vortexed for 1 min, and centrifuged at 5800 rpm for 10 min. 100 µL of the supernatant was added to a 96-well injection plate for LC-MS/MS analysis.

[4] = Liver microsome metabolic stability test, human; assay type: in vitro ADME; conditions: for half-life: 0.5 mg/mL protein, read-out: T½
Experimental: (§15) 1: To the sample wells of T0, T5, T10, T20, T30, T60 and NCF60, 10 µL of the test or reference working solution and 80 µL of microsome working solution (hepatic microsome with a protein concentration of 0.5 mg/mL) were added, and to Blank60 well, only the microsome working solution was added. Then samples of the Blank60, T5, T10, T20, T30 and T60 other than T0 and NCF60 were placed in a 37° C. water bath and pre-incubated for about 10 min.
(§16) 2: To the T0 sample well, 300 µL of stop solution (containing 200 ng/mL tolbutamide and 200 ng/mL labetalol in acetonitrile solution) was added first, followed by 10 µL of NADPH regeneration system working solution.
(§17) 3: After the pre-incubation of Blank60, T5, T10, T20, T30 and T60 incubation plates, 10 µL of NADPH regeneration system working solution was added to each sample well to start the reaction, and 10 µL of 100 mM potassium phosphate buffer was added to the NCF60 sample well.
(§18) 4: After incubation for an appropriate time (such as 5, 10, 20, 30 and 60 min), to each test sample well and control well of the Blank60, T5, T10, T20, T30, T60 and NCF60 plates, 300 µL of stop solution was added to terminate the reaction.
(§19) 5: All sample plates were shaken to mix well and centrifuged at 4000 rpm for 20 min, and 100 µL of the supernatant of the test sample or control sample was taken and diluted with 300 µL of pure water for LC-MS/MS analysis.
(§20) 6: Data analysis: T½ and CLint(mic) (µL/min/mg) values were calculated according to the first-order elimination kinetics. The first-order elimination kinetics equation was: […]

[5] = Liver microsome metabolic stability test, rat; assay type: in vitro ADME; conditions: for half-life: 0.5 mg/mL protein, read-out: T½
Experimental: as §15, §16, §17, §18, §19, §20

Sequence of BTK wild-type kinase (Q06187 whole entry): as the sequence (Q06187 whole entry C481S) above, with S481C counted along it

| Compound | IC50 [1] | %Remaining (60 min) [4] | half-life ([4]; liver microsomes) | %Remaining (60 min) [5] | half-life ([5]; liver microsomes) | also measured |
| --- | --- | --- | --- | --- | --- | --- |
| Nc1nccn2c(C3CCC(CO)OC3)nc(-c3ccc(C(F)(F)c4cc(C(F)(F)F)ccn4)cc3)c12 (stereo not shown) [Compound 124] | 100 to 1000 nM |  |  |  |  | IC50 [2]: 100 to 1000 nM |
| Nc1cccc(NC(=O)c2ccc(-c3nc([C@@H]4CC[C@@H](CO)OC4)n4ccnc(N)c34)cc2)n1 (single isomer, unassigned) [Compound 2-A-P2] | 20 to 100 nM |  |  |  |  | IC50 [2]: 20 to 100 nM |
| COc1ccccc1C(=O)NCc1ccc(-c2nn(C3CCC(CO)OC3)c3ncnc(N)c23)cc1 (single isomer, unassigned) [Compound 60-B] | 20 to 100 nM |  |  |  |  | Cl [3]: 188.82 mL/min/kg; AUC(0-inf) [3]: 889 ng·h/mL; Cmax [3]: 946 ng/mL; half-life [3]: 173 min |
| Cc1cccc(Oc2ccc(-c3nc(C4CCC(CO)OC4)n4ccnc(N)c34)cc2)c1F (stereo not shown) [Compound 24] | < 5 nM | 9.7% | 18.5 min | 0.1% | 5.4 min |  |
| COc1cccc(Oc2ccc(-c3nc(C45CCC(CO)(CC4)OC5)n4ccnc(N)c34)cc2)c1C#N [Compound 116] | < 5 nM |  |  |  |  | Cl [3]: 84.73 mL/min/kg; AUC(0-inf) [3]: 2010 ng·h/mL; Cmax [3]: 858 ng/mL; half-life [3]: 81 min |
| COc1cccc(Oc2ccc(-c3nc(C4CCC(CO)OC4)n4ccnc(N)c34)cc2)c1C(F)(F)F (stereo not shown) [Compound 119] | < 5 nM |  |  |  |  | Cl [3]: 75.92 mL/min/kg; AUC(0-inf) [3]: 2250 ng·h/mL; Cmax [3]: 663 ng/mL; half-life [3]: 38.4 min |
| Nc1nccn2c(C3CCC(CO)OC3)nc(-c3ccc(Oc4ccccc4)cc3)c12 (stereo not shown) [Compound 16] | 5 to 20 nM | 31.8% | 37.5 min | 14.6% | 21.7 min |  |
| Cc1ccnc(NC(=O)c2ccc(-c3nc(C4CCC(CO)OC4)n4ccnc(N)c34)cc2)c1 (stereo not shown) [Compound 70] | 5 to 20 nM | 77.7% | 105 min | 37.3% | 45.7 min |  |
| Nc1nccc2c1n(-c1ccc(Oc3ccccc3)cc1)c(=O)n2C1CCC(CO)OC1 (stereo not shown) [Compound 120] | 20 to 100 nM |  |  |  |  | IC50 [2]: 5 to 20 nM |
| Nc1nccn2c(C34CCC(CO)(CC3)OC4)nc(-c3ccc(C(F)(F)c4cccc(Cl)c4F)cc3)c12 [Compound 152] | 100 to 1000 nM | 25.4% | 30.2 min | 25.8% | 13.5 min | Cl [3]: 272.78 mL/min/kg; AUC(0-inf) [3]: 1330 ng·h/mL; Cmax [3]: 200 ng/mL; half-life [3]: 169 min |
| [2H]C([2H])([2H])Oc1cccc(Oc2ccc(-c3nc(C4CCC(CO)OC4)n4ccnc(N)c34)cc2)c1F (stereo not shown) [Compound 7] | < 5 nM |  |  |  |  | IC50 [2]: < 5 nM |
| COc1cccc(Oc2ccc(-c3nc(C4CCC(CO)OC4)n4c(Cl)cnc(N)c34)cc2)c1F (stereo not shown) [Compound 12] |  | 2.6% | 11.1 min | 3.0% | 11.8 min |  |
| Nc1nccn2c(C3CCC(CO)OC3)nc(-c3ccc(Oc4ccccc4)cc3F)c12 (stereo not shown) [Compound 17] | 5 to 20 nM |  |  |  |  | IC50 [2]: 5 to 20 nM |
| COc1ccccc1C(=O)NCc1ccc(-c2nn(C3CCC(CO)OC3)c3ncnc(N)c23)cc1 (stereo not shown) [Compound 60-A] |  | 109.9% |  | 69% |  |  |
| COc1ccccc1C(=O)NCc1ccc(-c2nn(C3CCC(CO)OC3)c3ncnc(N)c23)cc1 (single isomer, unassigned) [Compound 60-A] | 5 to 20 nM |  | > 145 min |  | 143 min | microsomal CLint ([4]; liver microsomes): < 9.6 µL/min/mg; microsomal CLint ([5]; liver microsomes): 9.7 µL/min/mg |
| Nc1nccn2c(C34CCC(CO)(CC3)OC4)nc(-c3ccc(C(F)(F)c4ccccc4Cl)cc3)c12 [Compound 155] | 100 to 1000 nM | 25.8% | 33.3 min | 14.2% | 22.3 min |  |
| Nc1nccn2c(C3CCC(CO)OC3)nc(-c3ccc(Oc4c(F)cccc4F)cc3)c12 (stereo not shown) [Compound 64] | 5 to 20 nM | 31.7% | 37.7 min | 8.5% | 17 min |  |
| COc1cccc(Oc2ccc(-c3nc(C4CCC(CO)OC4)n4ccnc(N)c34)cc2)c1 (stereo not shown) [Compound 101] | < 5 nM | 81.1% | > 145 min | 39.5% | 46.5 min | Cl [3]: 48.75 mL/min/kg; AUC(0-inf) [3]: 3670 ng·h/mL; Cmax [3]: 1770 ng/mL; half-life [3]: 75 min |
| Nc1nccn2c(C3CCC(CO)OC3)nc(-c3ccc(Oc4cccc(C(F)(F)F)c4F)cc3)c12 (stereo not shown) [Compound 19] | 5 to 20 nM | 23.5% | 29.4 min | 7.9% | 16.7 min |  |
| COc1cccc(C(F)(F)c2ccc(-c3nc(C4CCC(CO)OC4)n4ccnc(N)c34)cc2)c1 (stereo not shown) [Compound 121] | 5 to 20 nM |  |  |  |  | IC50 [2]: 5 to 20 nM |
| C=CC(=O)N1CCC[C@@H](n2nc(-c3ccc(Oc4ccccc4)cc3)c3c(N)ncnc32)C1 [Ibrutinib, reference compound] |  |  |  |  |  | AUC(0-inf) [3]: 362 ng·h/mL; Cmax [3]: 222 ng/mL |
| Nc1nccn2c(C3CCC(CO)OC3)nc(-c3ccc(Oc4cccc(Cl)c4F)cc3)c12 (stereo not shown) [Compound 9] |  | 24.5% | 28.6 min | 3.2% | 12.2 min |  |
| COc1cccc(NC(=O)c2ccc(-c3nc(C4CCC(CO)OC4)n4ccnc(N)c34)cc2)c1F (stereo not shown) [Compound 79] | > 1000 nM |  |  |  |  |  |
| COc1c(F)cccc1Oc1ccc(-c2nc(C3CCC(CO)OC3)n3ccnc(N)c23)cc1 (stereo not shown) [Compound 76] | 100 to 1000 nM |  |  |  |  |  |
